According to ChEMBL document CHEMBL1201862, “PubChem BioAssay data set” (2004):
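These data come from cells grown in 96-well plates and exposed to compound for 48 hours at five concentrations. Here, GI50 denotes the concentration required for 50% inhibition of growth.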 Activity calls are given as the source filed them. Rule as the data show it: active = GI50 up to about 1.1 µM and inactive = higher.

Experiments:
Assay in all cases: growth of human tumour cells (NCI), 48 h
SF-539 = system: SF-539
UO-31 = system: UO-31
LOX IMVI = system: LOX IMVI
IGROV-1 = system: IGROV-1
TK-10 = system: TK-10
MDA-MB-435 = system: MDA-MB-435
MDA-N = system: MDA-N
OVCAR-5 = system: OVCAR-5
K562 = system: K562
SK-MEL-5 = system: SK-MEL-5
HT-29 = system: HT-29
HCT-116 = system: HCT-116
UACC-62 = system: UACC-62
UACC-257 = system: UACC-257
HCC 2998 = system: HCC 2998
SR = system: SR
M14 = system: M14
XF498 = system: XF498
SNB-78 = system: SNB-78

Structure (SMILES) | GI50 (SF-539) | GI50 (UO-31) | GI50 (LOX IMVI) | GI50 (IGROV-1) | GI50 (TK-10) | GI50 (MDA-MB-435) | GI50 (MDA-N) | GI50 (OVCAR-5) | GI50 (K562) | GI50 (SK-MEL-5) | GI50 (HT-29) | GI50 (HCT-116) | GI50 (UACC-62) | GI50 (UACC-257) | GI50 (HCC 2998) | GI50 (SR) | GI50 (M14) | GI50 (XF498) | GI50 (SNB-78)
CC(=O)ON(C(C)=O)c1ccc(-c2nc3ccccc3s2)cc1 | 15.3 µM (inactive) | 14.6 µM (inactive) | 25.5 µM (inactive) | 0.791 µM (active) | 34.4 µM (inactive) | 26.9 µM (inactive) | 27.2 µM (inactive) | 34.2 µM (inactive) | 41 µM (inactive) | 24.5 µM (inactive) | 24 µM (inactive) | 24.5 µM (inactive) | 20.9 µM (inactive) | 37 µM (inactive) | 17.4 µM (inactive) | 25.6 µM (inactive) | 26.4 µM (inactive) | – | –
Nc1ccc(C(=O)N/C(=C\c2ccc3c(c2)OCO3)c2nc3ccc4c(c3[nH]2)C(=O)c2ccccc2C4=O)cc1 | 21.6 µM (inactive) | 2.64 µM (inactive) | 26.1 µM (inactive) | 17.5 µM (inactive) | 23.1 µM (inactive) | – | – | > 100 µM (inactive) | 25.5 µM (inactive) | 29 µM (inactive) | 40.6 µM (inactive) | 23.8 µM (inactive) | 33.7 µM (inactive) | 58.7 µM (inactive) | 43.3 µM (inactive) | – | 37.8 µM (inactive) | 93.8 µM (inactive) | 45.9 µM (inactive)
COc1ccc2nc(-c3ccccc3)cc(OCC(=O)O)c2c1 | > 100 µM (inactive) | 25.4 µM (inactive) | > 100 µM (inactive) | > 100 µM (inactive) | > 100 µM (inactive) | > 100 µM (inactive) | > 100 µM (inactive) | > 100 µM (inactive) | > 100 µM (inactive) | > 100 µM (inactive) | > 100 µM (inactive) | > 100 µM (inactive) | > 100 µM (inactive) | > 100 µM (inactive) | > 100 µM (inactive) | > 100 µM (inactive) | > 100 µM (inactive) | – | –
O=C(Nc1ccccc1)c1ccc(Cl)c([N+](=O)[O-])c1 | 21.4 µM (inactive) | 36.1 µM (inactive) | 4.46 µM (inactive) | 14.8 µM (inactive) | 29.3 µM (inactive) | – | – | – | 2.96 µM (inactive) | 5.82 µM (inactive) | 13.4 µM (inactive) | – | 6.68 µM (inactive) | 15.4 µM (inactive) | – | – | 10.2 µM (inactive) | 18 µM (inactive) | 17.3 µM (inactive)
CCCCCCCC/C=C\CCCCCCC/C=C1\C[C@](/C=C/C(=O)OC)(CO)OC1=O | 1.78 µM (inactive) | 1.15 µM (inactive) | 1.38 µM (inactive) | 2.75 µM (inactive) | 1.93 µM (inactive) | 1.25 µM (inactive) | 0.834 µM (active) | 5.98 µM (inactive) | 0.662 µM (active) | 3.31 µM (inactive) | 5.08 µM (inactive) | 2.16 µM (inactive) | 6.85 µM (inactive) | 12.6 µM (inactive) | 5.36 µM (inactive) | 2.74 µM (inactive) | 1.62 µM (inactive) | – | –
CCCCc1ccc(Nc2nc3c(ncn3COCCBr)c(=O)[nH]2)cc1 | > 100 µM (inactive) | > 100 µM (inactive) | > 100 µM (inactive) | > 100 µM (inactive) | > 100 µM (inactive) | > 100 µM (inactive) | > 100 µM (inactive) | > 100 µM (inactive) | > 100 µM (inactive) | > 100 µM (inactive) | > 100 µM (inactive) | > 100 µM (inactive) | > 100 µM (inactive) | > 100 µM (inactive) | > 100 µM (inactive) | 86.3 µM (inactive) | > 100 µM (inactive) | – | –
NC(=O)c1ccc(NCC2=CC(=O)C=CC2=O)cc1 | 17.1 µM (inactive) | 17.3 µM (inactive) | 17.5 µM (inactive) | 20.8 µM (inactive) | 17.7 µM (inactive) | 17.2 µM (inactive) | 17.3 µM (inactive) | 23 µM (inactive) | 21.8 µM (inactive) | 15.5 µM (inactive) | 22.1 µM (inactive) | 18.7 µM (inactive) | 20.4 µM (inactive) | 21.1 µM (inactive) | 35.8 µM (inactive) | 24.9 µM (inactive) | 16.9 µM (inactive) | – | –
CCCN(CCc1ccc(-c2ccccc2)cc1)CCc1ccc2nn[nH]c2c1 | 10.7 µM (inactive) | 9.31 µM (inactive) | 10.6 µM (inactive) | 10 µM (inactive) | 11.5 µM (inactive) | 8.93 µM (inactive) | 6.07 µM (inactive) | 17.1 µM (inactive) | 2.94 µM (inactive) | 3.91 µM (inactive) | 11.5 µM (inactive) | 4.66 µM (inactive) | 9.23 µM (inactive) | 4.84 µM (inactive) | 6.71 µM (inactive) | 3.74 µM (inactive) | 4.28 µM (inactive) | – | –
CC(=O)N(CN1C(=O)CCC1C(=O)O)c1ccccc1 (stereo not given) | > 50.6 µM (inactive) | > 56.9 µM (inactive) | > 56.9 µM (inactive) | > 50.4 µM (inactive) | > 53.5 µM (inactive) | > 100 µM (inactive) | > 58.9 µM (inactive) | > 55.6 µM (inactive) | > 53 µM (inactive) | > 58.7 µM (inactive) | > 55 µM (inactive) | > 56 µM (inactive) | > 51.9 µM (inactive) | > 54.2 µM (inactive) | > 100 µM (inactive) | > 100 µM (inactive) | > 54.5 µM (inactive) | – | –
CC1OC(n2ccc3ccc([N+](=O)[O-])cc32)C(O)C(O)C1O (stereo not given) | > 100 µM (inactive) | > 100 µM (inactive) | > 100 µM (inactive) | > 100 µM (inactive) | > 100 µM (inactive) | – | – | > 100 µM (inactive) | > 100 µM (inactive) | > 100 µM (inactive) | > 100 µM (inactive) | > 100 µM (inactive) | > 100 µM (inactive) | > 100 µM (inactive) | – | > 100 µM (inactive) | > 100 µM (inactive) | > 100 µM (inactive) | > 100 µM (inactive)
CC1=CCC[C@@]2(C)C(CC[C@@H]2C(C)/C=C/C(C)C)c2ccc(cc2C(=O)O)C[C@@H](O)CC1 (stereo not given in full) | 8.55 µM (inactive) | 15.7 µM (inactive) | 4.55 µM (inactive) | 12.3 µM (inactive) | 12.5 µM (inactive) | – | – | 16.4 µM (inactive) | 9.89 µM (inactive) | 3.59 µM (inactive) | 5.13 µM (inactive) | 5.21 µM (inactive) | 10.9 µM (inactive) | 16.6 µM (inactive) | 9.93 µM (inactive) | 13.5 µM (inactive) | 16.9 µM (inactive) | – | 16.1 µM (inactive)
CCN(CC)/C(SCc1ccccc1)=C(\C(Cl)=C(Cl)Cl)[N+](=O)[O-] | 19.7 µM (inactive) | 18.3 µM (inactive) | 14.1 µM (inactive) | 17.2 µM (inactive) | 19.2 µM (inactive) | 17.7 µM (inactive) | 16.4 µM (inactive) | 17.9 µM (inactive) | 25.8 µM (inactive) | 16.3 µM (inactive) | 25.8 µM (inactive) | 14.7 µM (inactive) | 3.87 µM (inactive) | 17.5 µM (inactive) | 21.2 µM (inactive) | 17.8 µM (inactive) | 15.9 µM (inactive) | – | –
Cc1ccc(C(=O)Nc2ccccc2)cc1/N=N/N(C)C | > 100 µM (inactive) | > 100 µM (inactive) | > 100 µM (inactive) | > 100 µM (inactive) | > 100 µM (inactive) | – | – | – | – | > 100 µM (inactive) | > 100 µM (inactive) | > 100 µM (inactive) | > 100 µM (inactive) | > 100 µM (inactive) | > 100 µM (inactive) | – | > 100 µM (inactive) | – | > 100 µM (inactive)
COC(=O)NC(Cc1ccccc1)NC(=O)OC(C)(C)C (stereo not given) | > 100 µM (inactive) | > 100 µM (inactive) | > 100 µM (inactive) | > 100 µM (inactive) | > 100 µM (inactive) | > 100 µM (inactive) | > 100 µM (inactive) | > 100 µM (inactive) | > 100 µM (inactive) | > 100 µM (inactive) | > 100 µM (inactive) | > 100 µM (inactive) | > 100 µM (inactive) | > 100 µM (inactive) | > 100 µM (inactive) | > 100 µM (inactive) | > 100 µM (inactive) | – | –
COc1cccc(C(NC2=NCCC=N2)c2cc3c(cc2O)OCO3)c1O (stereo not given) | 25.8 µM (inactive) | 35.6 µM (inactive) | 19.5 µM (inactive) | 29.4 µM (inactive) | 76.9 µM (inactive) | 29 µM (inactive) | 27.2 µM (inactive) | 36.6 µM (inactive) | 17.9 µM (inactive) | 38.8 µM (inactive) | 38.5 µM (inactive) | 24.1 µM (inactive) | 23.3 µM (inactive) | 34.4 µM (inactive) | 19.9 µM (inactive) | 11.6 µM (inactive) | 27.4 µM (inactive) | – | –
N#CC(C#N)=C(N)/C(C#N)=C/c1ccc(O)c(O)c1 | > 100 µM (inactive) | 37.2 µM (inactive) | 52.8 µM (inactive) | > 55.1 µM (inactive) | > 100 µM (inactive) | 87.1 µM (inactive) | > 100 µM (inactive) | > 58.3 µM (inactive) | 48.8 µM (inactive) | 78.9 µM (inactive) | > 92.9 µM (inactive) | 54 µM (inactive) | 49 µM (inactive) | > 95.5 µM (inactive) | > 100 µM (inactive) | 29.3 µM (inactive) | > 100 µM (inactive) | > 100 µM (inactive) | > 100 µM (inactive)
COc1ccc(-c2cc(=O)c3c(OC)c(OC)c(OC)c(OC)c3o2)cc1 [TANGERETIN] | > 100 µM (inactive) | 37.5 µM (inactive) | 52.2 µM (inactive) | 69 µM (inactive) | 58.2 µM (inactive) | 50.5 µM (inactive) | 54.7 µM (inactive) | > 100 µM (inactive) | 37.8 µM (inactive) | 27.7 µM (inactive) | 35.2 µM (inactive) | 34 µM (inactive) | 22.4 µM (inactive) | 68.4 µM (inactive) | 91 µM (inactive) | > 100 µM (inactive) | 76.9 µM (inactive) | – | –
